US20240262804A1, “NITROGEN-CONTAINING HETEROCYCLIC KETONES, PREPARATION METHODS AND MEDICINAL USES THEREOF” (Hansoh Bio LLC, priority 2021, published 2024)
Marks after values point to notes of the source that are not given here.

What was measured:
bovine cardiac myosin = bovine cardiac myosin (Bos taurus (Bovine), UniProt Q9BE39); test: Myosin inhibitory potency: PK/LDH-coupled ATPase assay on bovine skinned cardiac myofibrils; format: biochemical; details: pCa=6.25, 50 μM ATP, 25° C., read-out: myosin inhibition activity IC50
Procedure, shortened: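 Bovine left-ventricle skinned myofibrils (1 mg/mL) in PM12 buffer pH 6.8 at pCa 6.25, 50 μM ATP, PK/LDH-coupled NADH depletion read at 340 nm, 25 °C.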

[1] = biological target: bovine skinned cardiac myofibrils (myosin) (Bos taurus (Bovine), UniProt Q9BE39); test: Myosin inhibitory potency comparison: ATPase assay, cardiac myofibrils; format: biochemical; details: pCa=6.25
Procedure: (§1) In our experiments, bovine skinned cardiac myofibrils were isolated from the frozen bovine left ventricle as myosin's source in the ATPase assay. The calcium concentration that achieves a 50% (pCa50 or pCa=6.25) activation of the myofibril system was chosen as the final condition for assessing the activation activity according to the literature (DOI: 10.1074/jbc.M117.776815). Myofibrils ATPase activity was measured in a buffered solution containing 12 mM PIPES (piperazine-N, N′-bis(2-ethane sulfonic acid) and 2 mM magnesium chloride at pH 6.8 (PM12 buffer). Final assay conditions were 1 mg/mL of bovine cardiac myofibrils, 1:20 of stock PK/LDH (Sigma-Aldrich, Cat No. P0294-5X5ML), 50 μM ATP, 1 mM DTT (dithiothreitol), 0.75 mM NADH, 1.5 mM PEP at pCa50 (pCa=6.25). Compounds were dissolved in DMSO (dimethyl sulfoxide). Serial dilution of compounds was created such that the final desired concentration of compound would be achieved in a volume of 150 μL with a fixed DMSO concentration of 2% (v/v). 75 μL of a solution containing bovine cardiac myofibrils, PK/LDH, and calcium were added to a 96 well plate for a 7 point dose-response. In some circumstances, 10 point-response was used to repeat the ATPase assays on compounds of interest. Compounds were added to the myofibrils solution and incubated for 5 minutes. The enzymatic reaction was started with the addition of 75 μL of a solution containing ATP, PEP, NADH, compounds, and calcium. The ATPase activity was measured by reading absorbance at 340 nm in a PerkinElmer Victor Nivo plate reader at 25° C. in kinetic mode for 15 minutes using clear bottom plates. The slopes of the absorbance changes as a function of time for the first 10 minutes were normalized to slopes on the control wells containing all reagents, including DMSO, but without compounds. This normalized rate was then plotted as a function of small molecule concentration in GraphPad prism 9. The data were fitted to a four-parameter fit, and IC50 was calculated using Graphpad Prism 9.
(§2) Bovine skinned cardiac myofibrils were isolated from the frozen bovine left ventricle, and rabbit skinned skeletal myofibrils were isolated from the frozen rabbit Psoas major and minor muscles as myosin's source in the ATPase assay. The calcium concentration that achieves a 50% activation of the myofibril system (pCa=6.25 for bovine cardiac myofibrils and pCa=6 for rabbit skeletal myofibrils) was chosen as the final condition for assessing the activation activity according to the literature (DOI:10.1074/jbc.M117.776815). Rest of ATPase assay conditions are the same as illustrated in experiment 1.

[2] = tested on: rabbit skinned skeletal myofibrils (myosin); test: Myosin inhibitory potency comparison: ATPase assay, skeletal myofibrils; format: biochemical; details: for Skeleta/Cardiac: ratio of skeletal IC50 to cardiac IC50
Procedure: as §1, §2

[3] = tested on: isolated rat ventricular myocytes; test: Cardiomyocyte contractility assay (sarcomere shortening, IonOptix); format: cell-based; details: for Ratio of % FS 5 uM/15 uM: 5 uM versus 15 uM
Procedure: The effects of compounds on sarcomere shortening in isolated rat ventricular myocytes were assessed using the IonOptix apparatus.
Myocytes were placed in a chamber mounted on the stage of an inverted microscope and continuously superfused with oxygenated Tyrode solution containing (in millimolar): 121 NaCl, 5 KCl, 2.8 NaCH3CO2, MgCl2·6H2O, Glucose, NaHCO3, Na2HPO4. 7H2O, and 1.5 mM CaCl2). Solution was preheated at 36±1° C. and electrical-field stimulated at 1 Hz by 2 platinum electrodes connected to a Myopacer field stimulator (IonOptix Corporation) with 4 ms square-wave bipolar pulses (10 V). Cells were illuminated by the microscope light. The cell image was collected by a x40 ultraviolet epifluorescence objective, diverted to the microscope side port, where the cell image was recorded by a charge coupled device (CCD) camera (MyoCam, IonOptix Corporation), converting optical brightness (pixels) into electrical signals (voltage). The MyoCam configuration allowed acquisition of up to 240 images per second (240 Hz frame rate). Contractile properties of the myocytes were analyzed in real time by a video detector and a personal computer-based data acquisition system (Ionwizard 6.0, IonOptix Corporation). Only myocytes with clear striations, quiescent prior to pacing with a resting sarcomere length greater or equal to 1.75 μm were used, since this is presumed to represent the lower limit for healthy cells.
Sarcomere shortening was monitored in control solution (predrug) until stable recordings were obtained (baseline period). To determine the response to compounds, myocytes were first superfused for 60 seconds with Tyrode's buffer followed by at least a 5 minute—(or until steady state was reached, up to 10 min) superfusion of compound. Each cell was subjected to 2 concentrations (5 and 15 uM or 5 and 10 uM) of test compounds. For some cells, a washout period was performed after the last concentration. Duration of the washout period was variable, resulting in variability in the washout data. In separate cells, a single concentration of isoproterenol (100 nM) was applied. Data were continuously recorded using the IonOptix software. Contractility data were analyzed using Ionwizard software (IonOptix). For each cell, 10-15 contractility transients at baseline and after treatment were averaged and compared.

[4] = Pharmacokinetic profiles in male SD rats (IV and PO); format: in vivo, rat; details: IV 1 mg/kg, PO 5 mg/kg, route for this parameter not given; for clearance / half-life / Vd: rat, plasma; for Vd: read-out: VSS
Procedure: Pharmacokinetic profile of compounds were determined by IV (1 mg/Kg) and PO (5 mg/Kg) administrations in male SD rats. Compounds were administrated with free base and formulated in 5% DMAC+25% PEG-400+70%(30% 2-HP-β-CD in water). The compounds were dosed at 1 mg/kg for intravenous and 5 mg/kg oral administration. Blood samples were collected at 0, 0.083, 0.25, 0.5, 1, 2, 4, 8 and 24 hours post dose, serial bleeding for plasma for the IV group. Blood samples were collected at 0, 0.25, 0.5, 1, 2, 4, 6, 8 and 24 hours post dose, serial bleeding for the PO group. Approximately 150 μL whole blood/time point were collected in K2EDTA tube via jugular vein. Blood sample was put on ice and centrifuged at 2000 g for 5 min to obtain plasma sample within 15 minutes. PK parameters were estimated by non-compartmental model using WinNonlin 8.2.

[5] = tested on: heart function (cardiac contractility); test: Echocardiography assessment of acute pharmacodynamic effect in rat cardiac contractility; format: in vivo; details: Spraw-Dawley rats
Procedure: The Effect of Compounds on Heart Function was Determined by Echocardiography in Spraw-Dawley rats. Rats were under light anesthesia with 1-2% isoflurane. Compounds were dosed via oral gavage as single PO. Baseline heart functions were measured 1 day before dosing. The effect of compounds on heart function were measured at 1, 3, 6, and 24 hours post dosing. About 250 μL of whole blood was obtained at ˜1, 3, 6 and 24 hours post-dose via tail vein, immediately after the Echocardiography procedure. Blood was placed into a plasma separator tube containing K2 EDTA and kept on wet ice until processing. Blood samples were centrifuged at 2,000 g (4,400 rpm, Eppendorf 5417R) for 10 minutes at 4° C. Plasma samples were then transferred into micro-tubes and stored at −80° C. for future LC/MS analysis. The data were plotted as reduction of Fractional shortening vs plasma compound concentration. Therapeutic windows were determined as IC50/IC10 according to the literature (DOI: https://doi.org/10.1021/acs.jmedchem.1c01290).

[6] = rat ventricular myocytes, paced at 1 Hz

bovine skinned cardiac myofibrils (myosin), sequence (Q9BE39 whole entry): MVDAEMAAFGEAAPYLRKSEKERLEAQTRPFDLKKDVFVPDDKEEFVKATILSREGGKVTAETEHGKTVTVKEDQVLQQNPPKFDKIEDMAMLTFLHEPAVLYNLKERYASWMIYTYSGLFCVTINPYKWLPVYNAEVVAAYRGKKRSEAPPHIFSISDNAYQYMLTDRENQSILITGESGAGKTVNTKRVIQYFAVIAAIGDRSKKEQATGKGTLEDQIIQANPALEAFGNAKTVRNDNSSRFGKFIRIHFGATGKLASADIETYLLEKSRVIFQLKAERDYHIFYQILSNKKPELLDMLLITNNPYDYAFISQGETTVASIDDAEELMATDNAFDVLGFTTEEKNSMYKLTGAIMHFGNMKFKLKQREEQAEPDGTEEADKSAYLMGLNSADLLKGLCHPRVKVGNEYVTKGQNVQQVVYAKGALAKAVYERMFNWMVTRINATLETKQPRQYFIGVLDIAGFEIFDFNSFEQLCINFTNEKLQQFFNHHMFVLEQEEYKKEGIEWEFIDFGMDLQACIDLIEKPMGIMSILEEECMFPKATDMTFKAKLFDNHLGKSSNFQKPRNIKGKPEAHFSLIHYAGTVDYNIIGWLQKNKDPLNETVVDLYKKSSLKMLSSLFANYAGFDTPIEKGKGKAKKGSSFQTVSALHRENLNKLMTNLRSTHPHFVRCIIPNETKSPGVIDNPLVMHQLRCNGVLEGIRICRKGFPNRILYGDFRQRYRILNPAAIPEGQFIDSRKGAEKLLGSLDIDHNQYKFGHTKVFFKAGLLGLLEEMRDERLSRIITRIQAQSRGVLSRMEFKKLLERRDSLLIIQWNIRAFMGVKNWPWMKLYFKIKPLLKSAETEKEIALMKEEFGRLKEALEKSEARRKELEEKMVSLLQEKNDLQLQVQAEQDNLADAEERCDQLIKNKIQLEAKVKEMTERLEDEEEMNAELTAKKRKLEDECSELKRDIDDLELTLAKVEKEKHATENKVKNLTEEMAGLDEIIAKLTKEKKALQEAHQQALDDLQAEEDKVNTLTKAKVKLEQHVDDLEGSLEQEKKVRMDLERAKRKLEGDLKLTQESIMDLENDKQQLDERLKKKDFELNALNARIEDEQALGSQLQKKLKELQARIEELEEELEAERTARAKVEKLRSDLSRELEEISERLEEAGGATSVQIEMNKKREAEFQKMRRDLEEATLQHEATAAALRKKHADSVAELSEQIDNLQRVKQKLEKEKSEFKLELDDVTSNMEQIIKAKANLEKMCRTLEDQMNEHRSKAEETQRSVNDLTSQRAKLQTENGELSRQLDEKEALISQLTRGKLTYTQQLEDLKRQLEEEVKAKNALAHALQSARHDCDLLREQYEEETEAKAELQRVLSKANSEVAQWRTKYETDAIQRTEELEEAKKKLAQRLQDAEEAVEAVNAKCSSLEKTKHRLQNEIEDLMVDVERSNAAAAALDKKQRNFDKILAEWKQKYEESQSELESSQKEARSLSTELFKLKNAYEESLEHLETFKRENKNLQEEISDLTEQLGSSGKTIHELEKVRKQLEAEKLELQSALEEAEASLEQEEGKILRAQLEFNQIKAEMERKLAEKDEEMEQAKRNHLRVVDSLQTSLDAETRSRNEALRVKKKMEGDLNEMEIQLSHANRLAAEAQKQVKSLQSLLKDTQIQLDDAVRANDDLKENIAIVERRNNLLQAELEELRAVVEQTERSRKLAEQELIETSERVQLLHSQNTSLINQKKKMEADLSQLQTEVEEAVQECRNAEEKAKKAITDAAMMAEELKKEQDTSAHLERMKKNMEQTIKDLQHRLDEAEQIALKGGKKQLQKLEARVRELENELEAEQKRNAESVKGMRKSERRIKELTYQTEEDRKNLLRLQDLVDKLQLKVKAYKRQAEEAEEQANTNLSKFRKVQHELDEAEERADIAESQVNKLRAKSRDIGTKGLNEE
bovine skinned cardiac myofibrils (myosin), sequence (P85100 whole entry partner): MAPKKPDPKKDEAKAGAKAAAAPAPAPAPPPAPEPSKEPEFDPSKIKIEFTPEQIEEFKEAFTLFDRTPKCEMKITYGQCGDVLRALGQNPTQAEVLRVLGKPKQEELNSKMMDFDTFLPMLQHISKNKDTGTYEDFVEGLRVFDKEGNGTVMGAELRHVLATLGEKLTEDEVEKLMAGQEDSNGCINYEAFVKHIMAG
bovine skinned cardiac myofibrils (myosin), sequence (Q3SZE5 whole entry partner): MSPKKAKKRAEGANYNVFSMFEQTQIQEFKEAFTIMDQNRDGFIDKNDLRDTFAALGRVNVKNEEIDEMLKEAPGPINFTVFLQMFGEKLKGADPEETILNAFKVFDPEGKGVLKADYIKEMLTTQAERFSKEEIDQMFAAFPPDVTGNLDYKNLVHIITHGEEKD
bovine cardiac myosin, sequence (Q9BE39 whole entry): as the sequence (Q9BE39 whole entry) above
bovine cardiac myosin, sequence (P85100 whole entry partner): as the sequence (P85100 whole entry partner) above
bovine cardiac myosin, sequence (Q3SZE5 whole entry partner): as the sequence (Q3SZE5 whole entry partner) above

Structure (SMILES)	IC50 (bovine cardiac myosin) [nM]	IC50 [1] [nM]	potency in inhibiting fast skeletal myofibril activity (in words) ([2]; compared with cardiac myofibrils)	Skeleta/Cardiac [2]	DNAUC [4] [ng·h/mL]	clearance [4] [mL/min/kg]	half-life [4] [h]	Vd [4] [L/kg]	cardiac-skeletal myosin selectivity (in words) [2]	Ratio of % FS 5 uM/15 uM [3]	% FS (% reduction from baseline) at 5 uM [3, 6]	% FS (% reduction from baseline) at 15uM [3, 6]	effect on heart contractility at 20 mpk (FIG. 2) ([5]; single PO, 20 mpk)	effect on heart contractility, dose dependence (FIG. 2) ([5]; single PO, up to 10 mpk)	therapeutic window, plasma exposure vs fractional shortening (in words) ([5]; therapeutic window as IC50/IC10)	Ratio of % FS 5 uM/10 uM ([3]; 5 uM versus 10 uM (cell marked *))	% FS (% reduction from baseline) at 10 uM ([3]; 10 uM (cell marked *), rat ventricular myocytes, paced at 1 Hz)
C[C@H](Nc1nc(=O)n(C2CCOCC2)c(=O)[nH]1)c1ccc(F)cc1F [Example 10]	1840	1500	way less potent	29.01	1724.7	9.17	4.51	1.78	better cardiac-skeletal myosin selectivity	1.2	51 +/− 6%	41.5 +/− 6.3%	do not further inhibit heart contractility at 20 mpk	dose dependent under 10 mpk	superior therapeutic windows	–	–
CC(C)n1c(=O)nc(N[C@@H](C)C2CCCCC2)[nH]c1=O [Example 45]	2800	7580	–	5.36	–	–	–	–	–	–	–	–	–	–	–	–	–
C[C@H](Nc1nc(=O)n(C2CCOCC2)c(=O)[nH]1)c1ccc(OC(F)(F)F)cc1 [Example 152]	1210	1790	–	2.39	–	–	–	–	–	2.4	62.9 +/− 6.2%	26.7 +/− 6.4%	–	–	–	–	–
Cc1ccc([C@H](C)Nc2nc(=O)n(C3CCOCC3)c(=O)[nH]2)c(C)c1 [Example 168]	1700	–	–	–	13412.2	1.33	3.89	0.32	–	2.2	54.3 +/− 9.3%	24.3 +/− 8.5%	–	–	–	–	–

Now from value to compound, other results behind:

IC50 (bovine cardiac myosin) [nM]	IC50 [1] [nM]	potency in inhibiting fast skeletal myofibril activity (in words) ([2]; compared with cardiac myofibrils)	Skeleta/Cardiac [2]	DNAUC [4] [ng·h/mL]	clearance [4] [mL/min/kg]	half-life [4] [h]	Vd [4] [L/kg]	Structure (SMILES)	cardiac-skeletal myosin selectivity (in words) [2]	Ratio of % FS 5 uM/15 uM [3]	% FS (% reduction from baseline) at 5 uM [3, 6]	% FS (% reduction from baseline) at 15uM [3, 6]	effect on heart contractility at 20 mpk (FIG. 2) ([5]; single PO, 20 mpk)	effect on heart contractility, dose dependence (FIG. 2) ([5]; single PO, up to 10 mpk)	therapeutic window, plasma exposure vs fractional shortening (in words) ([5]; therapeutic window as IC50/IC10)	Ratio of % FS 5 uM/10 uM ([3]; 5 uM versus 10 uM (cell marked *))	% FS (% reduction from baseline) at 10 uM ([3]; 10 uM (cell marked *), rat ventricular myocytes, paced at 1 Hz)
1130	–	–	–	5052.2	3.17	5.47	0.97	Cc1cc([C@H](C)Nc2nc(=O)n(C3CCOCC3)c(=O)[nH]2)ccc1F [Example 156]	–	2.4	61.5 +/− 5.2%	26.1 +/− 4%	–	–	–	–	–
–	660	–	–	2299.6	5.5	3.35	1.17	Cc1cccc([C@H](C)Nc2nc(=O)n(C3CCOCC3)c(=O)[nH]2)c1 [Example 4]	–	–	71.2 +/− 7.6%	–	–	–	–	1.7*	42.4 +/− 4.2* %
